Reference: patent US8410128B2, “Triazolopyridine compounds useful as kinase inhibitors” (Bristol-Myers Squibb Company, priority 2008, dated 2013)

Biological target: T1, p38 (Homo sapiens, UniProt Q16539)
T1 construct: GST (N); made in house; host or cells: E. coli
Assay: p38 Assay (33P-ATP/MBP filter kinase assay)
Format: biochemical
Conditions: bacterially expressed, activated p38 10 nM; ATP 1 μM; MBP substrate; 25° C., 45 min
Description: Generation of p38 Kinases
For this assay, cDNAs of human p38α, β, and γ isozymes were cloned by PCR. These cDNAs were subcloned in the pGEX expression vector (Pharmacia). GST-p38 fusion protein was expressed in E. Coli and purified from bacterial pellets by affinity chromatography using glutathione agarose. p38 fusion protein was activated by incubating with constitutively active MKK6. Active p38 was separated from MKK6 by affinity chromatography. Constitutively active MKK6 was generated according to Raingeaud et al. (Mol. Cell. Biol., 1247-1255 (1996)).
The assays were performed in V-bottomed 96-well plates. The final assay volume was 60 μl prepared from three 20 μl additions of enzyme, substrates (MBP and ATP) and test compounds in assay buffer (50 mM Tris pH 7.5, 10 mM MgCl2, 50 mM NaCl and 1 mM DTT). Bacterially expressed, activated p38 was pre-incubated with test compounds for 10 min. prior to initiation of reaction with substrates. The reaction was incubated at 25° C. for 45 min. and terminated by adding 5 μl of 0.5 M EDTA to each sample. […] The filtermat was then dried in a microwave oven for 1 min., treated with MELTILEX® A scintillation wax (Wallac), and counted on a MICROBETA® scintillation counter Model 1450 (Wallac). Inhibition data were analyzed by nonlinear least-squares regression using PRIZM® (GraphPadSoftware). […]

T1 sequence (Q16539 whole entry): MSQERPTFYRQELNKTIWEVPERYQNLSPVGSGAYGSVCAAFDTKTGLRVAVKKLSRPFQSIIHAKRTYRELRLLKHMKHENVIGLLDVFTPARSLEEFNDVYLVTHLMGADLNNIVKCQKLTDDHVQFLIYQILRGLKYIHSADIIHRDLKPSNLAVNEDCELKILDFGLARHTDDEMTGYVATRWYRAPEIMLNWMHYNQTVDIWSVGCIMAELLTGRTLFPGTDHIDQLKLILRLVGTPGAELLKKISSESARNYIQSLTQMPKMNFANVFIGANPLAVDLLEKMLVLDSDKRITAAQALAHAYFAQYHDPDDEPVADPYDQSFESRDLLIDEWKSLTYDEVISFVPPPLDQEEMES

- IC50: 581 nM
SMILES: CC(C)Nc1ncc(-c2ccc3nncn3c2)s1 [Example 12]
